Among the data in patent publication US12247019B2 (Centaurus Therapeutics, priority 2018, dated 2025) are inhibition and IC50 values, retold here.

In general, IC50 refers to the concentration at which inhibition is half-maximal.

The test addresses T1, Des1 (Homo sapiens, UniProt O15121).
T1 sequence (O15121 1-323): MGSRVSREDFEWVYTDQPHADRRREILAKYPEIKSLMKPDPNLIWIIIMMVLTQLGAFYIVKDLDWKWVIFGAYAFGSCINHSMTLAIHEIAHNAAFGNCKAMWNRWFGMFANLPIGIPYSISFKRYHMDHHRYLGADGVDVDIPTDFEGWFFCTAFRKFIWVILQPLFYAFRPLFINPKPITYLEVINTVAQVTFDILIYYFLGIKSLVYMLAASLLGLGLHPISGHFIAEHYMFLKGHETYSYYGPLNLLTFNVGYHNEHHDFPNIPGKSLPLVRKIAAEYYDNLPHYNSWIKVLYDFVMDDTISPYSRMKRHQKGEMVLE
As to the kind of experiment: Jurkat T cell measurement of conversion of dihydroceramide to ceramide (Des1 activity, LC-MS/MS of NBD-C6-ceramide). The format is cell-based. Also noted: endogenous in cells; host or cells: Jurkat clone E6-1. The note with it: Jurkat clone E6-1 cells, 10 μM NBD-C6-dihydroceramide, 3 hours at 37° C.; for inhibition at 0.5 µM: 0.5 uM compound, read-out: Des1 % Inhib (0.5 uM); for IC50: read-out: Des1 IC50. The protocol: Jurkat T Cell Measurement of Conversion of Dihydroceramide to Ceramide
Jurkat clone E6-1 cells were grown and then seeded at 10^6 cells/mL in a 96-well plate (400 μL in each well. The cells were administered 100 μL of cell culture media containing 50-μM NBD-C6-dihydroceramide (Des1 substrate), affording a final concentration of substrate of 10 μM. The cells were incubated with substrate at 4° C. for 30 minutes. Following the incubation at 4° C., the cell suspension was centrifuged at 1200 rpm for 3 minutes, and the cell pellet is resuspended in 400 μL of fresh media containing various concentrations of either fenretinide (known Des1 inhibitor control compound) or test article. The final concentrations of control compound and test compounds were tested in a range from 0-10 μM. The cells and compounds were incubated at 37° C. for 3 hours. Following the 3-hour incubation, the plate was centrifuged at 2500 g for 3 minutes at 4° C., followed by collection and transfer of 200 μL of the supernatant to a new 96-well plate with 300 μL of methanol an containing appropriate internal standards for liquid chromatography/tandem mass spectroscopy (LC/MS/MS) analysis (internal standard: 500 nM labetalol and 100 nM alprazolam). The samples were vortexed for 2 minutes followed by centrifugation at 3,220 g for 20 minutes. Following centrifugation, 200 μL of the supernatant was transferred to a new 96-well plate for LC-MS/MS analysis to determine the amount of NBD-C6-ceramide (Des1 product) produced. The assay was typically performed in duplicate. A reduction of at least 30% compared to vehicle control (0 μM test article) is indicative of an active compound, and a reduction of 75% compared to vehicle control is preferred.

`O=C(Nc1ccc(O)cn1)N1CCC(c2ccc(F)cc2)CC1` [Example 2, N-[5-[Hydroxy]pyridin-2-yl]-4-(4-fluorophenyl)piperidine-1-carboxamide]: the inhibition at 0.5 µM is 91.7% and the half-inhibitory concentration (IC50) turned out to be 0.025 µM.

On to `O=S(=O)(Nc1ccc(O)cn1)C1CCN(Cc2ccccc2)CC1` [Example 65, 1-benzyl-N-(5-hydroxypyridin-2-yl)piperidine-4-sulfonamide], for which the IC50 is more than 1 µM.

On to `COc1ccc(C2CCN(C(=O)Nc3ccc(O)cn3)CC2)cc1` [Example 6, N-(5-Hydroxypyridin-2-yl)-4-(4-methoxyphenyl)piperidine-1-carboxamide], for which the inhibition at 0.5 µM is 81.8% and the IC50 came to 0.069 µM.

`O=C(Nc1ccc(O)cn1)N1CCCN(c2ccc(C(F)(F)F)cn2)CC1` [Example 86, N-(5-hydroxypyridin-2-yl)-4-[5-(trifluoromethyl)pyridin-2-yl]-1,4-diazepane-1-carboxamide]: the inhibition at 0.5 µM was found to be 84.6% and the half-maximal inhibitory concentration (IC50) amounted to 0.078 µM.

On to `O=C(Nc1ccc(O)cn1)NC1CCN(c2ccc(F)cn2)CC1` [Example 49, 1-[1-(5-fluoropyridin-2-yl)piperidin-4-yl]-3-(5-hydroxypyridin-2-yl)urea], for which the IC50 is 0.13 µM.

`COc1ccc(N2CCN(C(=O)Nc3ccc(O)cn3)CC2)nc1` [Example 45, N-(5-hydroxypyridin-2-yl)-4-(5-methoxypyridin-2-yl)piperazine-1-carboxamide]: the IC50 was found to be 0.47 µM.

Consider `O=C(Nc1ccc(O)cn1)N1CCN(c2ccccn2)CC1` [Example 17, N-(5-hydroxypyridin-2-yl)-4-(pyridin-2-yl) piperazine-1-carboxamide], for which the inhibition at 0.5 µM amounted to 76.9%.

For the compound `O=S(=O)(Nc1ccc(O)cn1)N1CCC(c2ccc(Cl)cc2)CC1` [Example 71, 4-(4-chlorophenyl)-N-(5-hydroxypyridin-2-yl)piperidine-1-sulfonamide], the inhibition at 0.5 µM came out at 88% and the half-maximal inhibitory concentration (IC50) amounted to 0.031 µM.

As for `CC(C)C1CCN(C(=O)Nc2ccc(O)cn2)CC1` [Example 9, N-(5-Hydroxypyridin-2-yl)-4-(propan-2-yl)piperidine-1-carboxamide], the inhibition at 0.5 µM stood at 93.8% and the half-maximal inhibitory concentration (IC50) came out at 0.017 µM.

Turning to `O=C(Nc1ccc(O)cn1)N1CCN(c2cccnc2)CC1` [Example 39, 1-[((5-Hydroxypyridin-2-yl)amino)carbonyl]-4-(pyridin-3-yl)piperazine], the inhibition at 0.5 µM worked out at 9.11%.

For the compound `O=C(Nc1ccc(O)cn1)N1CCN(c2cc(C(F)(F)F)ccn2)CC1` [Example 33, N-(5-hydroxypyridin-2-yl)-4-[4-(trifluoromethyl)pyridin-2-yl]piperazine-1-carboxamide], the inhibition at 0.5 µM came to 93.1% and the IC50 turned out to be 0.007 µM.

Regarding `O=C(Nc1ccc(O)cn1)N1CCC(c2ccc(Cl)cc2)CC1` [Example 4, 4-(4-Chlorophenyl)-N-(5-hydroxypyridin-2-yl)piperidine-1-carboxamide], the inhibition at 0.5 µM was determined as 94.3% and the concentration for half-maximal inhibition (IC50) came to 0.023 µM.

As to `O=C(Nc1ccc(O)cn1)N1CCCN(c2ccc(F)cn2)CC1` [Example 84, 4-(5-fluoropyridin-2-yl)-N-(5-hydroxypyridin-2-yl)-1,4-diazepane-1-carboxamide], the IC50 stood at 0.1 µM.

On to `O=C(Nc1ccc(O)cn1)N1CCN(c2cnn(-c3ccccc3)c2)CC1` [Example 80, N-(5-hydroxypyridin-2-yl)-4-(1-phenyl-1H-pyrazol-4-yl)piperazine-1-carboxamide], for which the inhibition at 0.5 µM worked out at 56.9%.

Take `O=C(Nc1ccc(O)cn1)N1CCC(c2cccc(Cl)c2)CC1` [Example 7]: the inhibition at 0.5 µM worked out at 94% and the half-maximal inhibitory concentration (IC50) was determined as 0.026 µM.

`O=C(Nc1ccc(O)cn1)N1CCN(c2ccc(F)cc2F)CC1` [Example 13, 4-(2,4-difluorophenyl)-N-(5-hydroxypyridin-2-yl)piperazine-1-carboxamide]: the inhibition at 0.5 µM stood at 93% and the concentration for half-maximal inhibition (IC50) was in the range of 0.009 to 0.033 µM.

Regarding `O=S(=O)(Nc1ccc(O)cn1)N1CCN(c2ccc(C(F)(F)F)cc2)CC1` [Example 75, N-(5-hydroxypyridin-2-yl)-4-(4-(trifluoromethyl)phenyl)-piperazine-1-sulfonamide], the inhibition at 0.5 µM was found to be 91.2% and the IC50 is 0.062 to 0.086 µM.

As for `O=C(Nc1ccc(O)cn1)N1CCN(c2ccc(F)cn2)CC1` [Example 24, 4-(5-fluoropyridin-2-yl)-N-(5-hydroxypyridin-2-yl)piperazine-1-carboxamide], the IC50 lay in the range of 0.064 to 0.094 µM.

As to `O=S(=O)(Nc1ccc(O)cn1)N1CCN(c2ccc(Cl)cn2)CC1` [Example 73, 4-(5-Chloropyridin-2-yl)-N-(5-hydroxypyridin-2-yl)piperazine-1-sulfonamide], the inhibition at 0.5 µM is 41.9%.

Consider `N#Cc1ccc(N2CCN(C(=O)Nc3ccc(O)cn3)CC2)nc1` [Example 34, 4-(5-cyanopyridin-2-yl)-N-(5-hydroxypyridin-2-yl)piperazine-1-carboxamide], for which the inhibition at 0.5 µM was 85.4%.

On to `O=C(Nc1ccc(O)cn1)N1CCCCC1` [Example 10, N-(5-Hydroxypyridin-2-yl)piperidine-1-carboxamide], for which the inhibition at 0.5 µM was 15%.

For the compound `O=C(Nc1ccc(O)cn1)OC1CCN(c2ccc(F)cn2)CC1` [Example 56, 1-(5-fluoropyridin-2-yl)piperidin-4-yl N-(5-hydroxypyridin-2-yl)carbamate], the inhibition at 0.5 µM was determined as 94.7% and the IC50 amounted to 0.028 µM.

For `O=C(Nc1ccc(O)cn1)N1CCN(c2ccccc2)CC1` [Example 3, N-(5-Hydroxypyridin-2-yl)-4-phenylpiperazine-1-carboxamide], the inhibition at 0.5 µM stood at 87.9% and the IC50 is 0.053 µM.

For `O=C(Nc1ccc(O)cn1)N1CCN(c2cc(F)cc(F)c2)CC1` [Example 26, 4-(3,5-difluorophenyl)-N-(5-hydroxypyridin-2-yl)piperazine-1-carboxamide], the concentration for half-maximal inhibition (IC50) amounted to 0.012 µM.

`O=C(Nc1ccc(O)cn1)c1cccc(-c2ccccc2)c1` [Example 89, N-(5-hydroxypyridin-2-yl)-[1,1-biphenyl]-3-carboxamide]: the inhibition at 0.5 µM stood at 93% and the IC50 turned out to be 0.0029 µM.

`O=C(Nc1ccc(O)cn1)N1CCN(c2ccccc2F)CC1` [Example 12, 4-(2-fluorophenyl)-N-(5-hydroxypyridin-2-yl)piperazine-1-carboxamide]: the inhibition at 0.5 µM was found to be 90.5% and the concentration for half-maximal inhibition (IC50) stood at 0.054 µM.

As for `O=C(Nc1ccc(O)cn1)NC1CCN(c2ccc(Cl)cc2)CC1` [Example 52, 1-[1-(4-chlorophenyl)piperidin-4-yl]-3-(5-hydroxypyridin-2-yl)urea], the half-maximal inhibitory concentration (IC50) stood at 0.029 µM.

Turning to `O=C(Nc1ccc(O)cn1)N1CCCCCC1` [Example 11, N-(5-hydroxypyridin-2-yl)azepane-1-carboxamide], the inhibition at 0.5 µM worked out at 38.5%.

Regarding `CC(C)CCCCCS(=O)(=O)Nc1ccc(O)cn1` [Example 70, N-(5-Hydroxypyridin-2-yl)-6-methylheptane-1-sulfonamide], the inhibition at 0.5 µM is 83.8% and the 50% inhibitory concentration (IC50) came to 0.11 µM.

For `O=C(Nc1ccc(O)cn1)N1CCN(Cc2ccccc2)CC1` [Example 37, 4-benzyl-N-(5-hydroxypyridin-2-yl)piperazine-1-carboxamide], the inhibition at 0.5 µM came to 80.7%.

Take `CC(C)c1ccc(S(=O)(=O)Nc2ccc(O)cn2)cc1` [Example 61, N-(5-Hydroxypyridin-2-yl)-4-(propan-2-yl)benzene-1-sulfonamide]: the inhibition at 0.5 µM was determined as 37.5%.

Regarding `O=C(Nc1ccc(O)cn1)OC1CCN(c2ccc(C(F)(F)F)cn2)CC1` [Example 60, 1-[5-(trifluoromethyl)pyridin-2-yl]piperidin-4-yl N-(5-hydroxypyridin-2-yl)carbamate], the inhibition at 0.5 µM was 96% and the IC50 stood at 0.003 µM.

Take `CCCCCCOC(=O)Nc1ccc(O)cn1` [Example 41, Hexyl N-(5-hydroxypyridin-2-yl)carbamate]: the inhibition at 0.5 µM worked out at 95.1% and the IC50 is 0.013 µM.

Regarding `O=S(=O)(Nc1ccc(O)cn1)C1CCN(c2ccc(Cl)cn2)CC1` [Example 67, 1-(5-chloropyridin-2-yl)-N-(5-hydroxypyridin-2-yl)piperidine-4-sulfonamide], the inhibition at 0.5 µM came out at 85.3%.
